Test results taken from US20240024490A1, “BIFUNCTIONAL MOLECULES FOR SELECTIVE MODIFICATION OF TARGET SUBSTRATES” (The Broad Institute, Inc., priority 2021, published 2024).
Read-outs that look alike come from different tables or passages of the source. Values belong to the molecule of their own block, whether it stands above or below them.

Experiments:
[1] = cited from earlier work
Recombinant PKCζ = target: T1, Recombinant PKCζ (Homo sapiens, UniProt Q05513); conditions: cited from earlier work
T1 sequence (Q05513 1-592): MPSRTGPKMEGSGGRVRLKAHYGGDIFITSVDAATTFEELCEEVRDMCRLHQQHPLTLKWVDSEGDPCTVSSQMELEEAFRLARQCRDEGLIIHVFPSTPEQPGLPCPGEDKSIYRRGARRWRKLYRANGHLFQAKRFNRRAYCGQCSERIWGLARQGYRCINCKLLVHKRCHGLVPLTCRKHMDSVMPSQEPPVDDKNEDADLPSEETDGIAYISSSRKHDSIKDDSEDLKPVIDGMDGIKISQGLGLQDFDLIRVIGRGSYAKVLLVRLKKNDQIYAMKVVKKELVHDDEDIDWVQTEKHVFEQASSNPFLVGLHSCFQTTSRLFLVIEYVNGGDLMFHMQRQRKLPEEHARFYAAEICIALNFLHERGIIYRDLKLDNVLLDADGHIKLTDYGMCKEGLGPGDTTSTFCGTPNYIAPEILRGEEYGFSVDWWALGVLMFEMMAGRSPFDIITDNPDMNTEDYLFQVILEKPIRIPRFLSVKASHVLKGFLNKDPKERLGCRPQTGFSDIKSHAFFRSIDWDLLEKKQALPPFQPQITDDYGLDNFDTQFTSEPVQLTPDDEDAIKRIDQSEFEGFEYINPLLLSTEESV

PDK1 [2] = target: T2, PDK1 (Homo sapiens, UniProt O15530); conditions: cited from earlier work
T2 sequence (O15530 1-556): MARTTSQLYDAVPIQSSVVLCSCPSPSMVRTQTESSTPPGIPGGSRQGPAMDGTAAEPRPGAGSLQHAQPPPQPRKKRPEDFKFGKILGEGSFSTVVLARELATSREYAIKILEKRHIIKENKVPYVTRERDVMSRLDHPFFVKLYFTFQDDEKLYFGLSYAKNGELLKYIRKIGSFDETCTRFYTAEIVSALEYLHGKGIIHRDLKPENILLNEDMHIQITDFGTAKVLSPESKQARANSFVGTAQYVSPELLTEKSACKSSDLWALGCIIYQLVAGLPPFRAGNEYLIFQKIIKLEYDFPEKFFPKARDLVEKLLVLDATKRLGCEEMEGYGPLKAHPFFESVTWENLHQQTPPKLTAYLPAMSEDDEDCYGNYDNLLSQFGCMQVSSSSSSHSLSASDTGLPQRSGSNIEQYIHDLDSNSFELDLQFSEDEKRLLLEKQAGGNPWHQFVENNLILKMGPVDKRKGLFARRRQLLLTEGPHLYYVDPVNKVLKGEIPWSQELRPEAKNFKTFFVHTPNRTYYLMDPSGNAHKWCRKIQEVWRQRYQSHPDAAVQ

PDK1 [3] = target: T2, PDK1; conditions: ITC; cited from earlier work
AMPK = conditions: cited from earlier work
K562 cells = assay: K562 cell viability; type: cell-based
Z-138 cells [4] = assay: Z-138 cell viability; type: cell-based
Description: Since PKC phosphorylates membrane-associated BTK with the C1 domain buried in the lipid bilayer, [5] Applicants aimed to characterize PHICS-mediated BTK phosphorylation by PKC in vitro in the absence of lipid bilayer. […] PEG4 linker, and benzolactam (FIG. 73A). […] One of the modified residues (T410) is located close to the ATP binding pocket, whereas other sites (S310, 5323, and 5378) are on the loops of the SH2 domain in BTK. […] To explore the biological consequences of these neo-phosphorylations, Applicants adopted a genetic approach where the phosphorylated Ser/Thr residues were mutated to aspartic acid, a phosphomimetic, and alanine as a control. […] [8] […] The following studies will be focused on further optimization of the anti-cancer potency of BTK and BCR-ABL targeting PKC-based PHICS molecules as well as on the detailed investigation of their mechanism of action.
Applicants assessed the viability of Z-138 cells after introduction of small molecules at various concentrations, see FIGS. 67-71. […]
Applicants found a non-linear dependency on Z-138 cell viability as a function of linker length and composition.

Z-138 cells [5] = assay: Z-138 cell viability; type: cell-based; conditions: FIGS. 67-71
HER2-Cter-FKBP construct = assay: Phosphorylation of HER2-FKBP construct by ABL in HEK293 cells; type: cell-based; conditions: 15 minutes, pY1221 HER2-specific antibody
HER2-Cter-FKBP = assay: Phosphorylation of HER2-Cter-FKBP by ABL in transfected HEK293 cells (pY1221 HER2-specific antibody); type: cell-based; conditions: 15 minutes of compound treatment, FIG. 74C
FGFR = assay: FGFR-FKBP phosphorylation by ABL and FGFR1/mTOR/G-CSF signaling; type: cell-based
Description: Applicants expanded the scope of ABL targets by phosphorylating a receptor tyrosine kinase, FGFR by fusing an FKBP domain to the cytosolic portion of FGFR (FIG. 37).

ABL myristoyl domain = conditions: cited from earlier work
JNK 2 = JNK 2 (Homo sapiens, UniProt P45984); conditions: cited from earlier work
JNK 1 = JNK 1 (Homo sapiens, UniProt P45983); conditions: cited from earlier work
Aurora A = target: T3, Aurora A (Homo sapiens, UniProt O14965); conditions: cited from earlier work; for Ki: read-out: Calculated Ki
T3 sequence (O14965 1-403): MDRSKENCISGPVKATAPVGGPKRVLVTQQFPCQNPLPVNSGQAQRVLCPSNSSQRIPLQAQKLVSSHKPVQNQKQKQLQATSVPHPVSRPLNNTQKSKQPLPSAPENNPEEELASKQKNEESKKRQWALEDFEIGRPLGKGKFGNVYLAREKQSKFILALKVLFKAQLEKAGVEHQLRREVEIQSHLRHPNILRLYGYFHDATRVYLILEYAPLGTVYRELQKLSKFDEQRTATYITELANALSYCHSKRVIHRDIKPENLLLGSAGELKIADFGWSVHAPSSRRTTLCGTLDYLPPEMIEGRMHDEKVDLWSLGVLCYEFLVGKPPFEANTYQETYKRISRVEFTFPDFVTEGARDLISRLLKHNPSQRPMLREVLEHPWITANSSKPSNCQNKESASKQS

HSP90 = conditions: cell free assay; cited from earlier work
[6] = target: β1 subunit-containing AMPK (Homo sapiens, UniProt Q13131+Q9Y478); conditions: cited from earlier work
[7] = target: β2 subunit-containing AMPK (Homo sapiens, UniProt O43741+Q13131); conditions: cited from earlier work
Chain of β2 subunit-containing AMPK (O43741 whole entry): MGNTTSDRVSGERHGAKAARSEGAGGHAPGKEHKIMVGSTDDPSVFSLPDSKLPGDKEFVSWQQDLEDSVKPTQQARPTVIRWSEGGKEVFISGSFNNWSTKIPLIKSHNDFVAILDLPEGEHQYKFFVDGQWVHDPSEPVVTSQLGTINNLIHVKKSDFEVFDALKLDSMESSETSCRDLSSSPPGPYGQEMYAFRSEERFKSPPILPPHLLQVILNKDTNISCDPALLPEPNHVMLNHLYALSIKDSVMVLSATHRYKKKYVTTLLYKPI
Chain of β2 subunit-containing AMPK (Q13131 whole entry): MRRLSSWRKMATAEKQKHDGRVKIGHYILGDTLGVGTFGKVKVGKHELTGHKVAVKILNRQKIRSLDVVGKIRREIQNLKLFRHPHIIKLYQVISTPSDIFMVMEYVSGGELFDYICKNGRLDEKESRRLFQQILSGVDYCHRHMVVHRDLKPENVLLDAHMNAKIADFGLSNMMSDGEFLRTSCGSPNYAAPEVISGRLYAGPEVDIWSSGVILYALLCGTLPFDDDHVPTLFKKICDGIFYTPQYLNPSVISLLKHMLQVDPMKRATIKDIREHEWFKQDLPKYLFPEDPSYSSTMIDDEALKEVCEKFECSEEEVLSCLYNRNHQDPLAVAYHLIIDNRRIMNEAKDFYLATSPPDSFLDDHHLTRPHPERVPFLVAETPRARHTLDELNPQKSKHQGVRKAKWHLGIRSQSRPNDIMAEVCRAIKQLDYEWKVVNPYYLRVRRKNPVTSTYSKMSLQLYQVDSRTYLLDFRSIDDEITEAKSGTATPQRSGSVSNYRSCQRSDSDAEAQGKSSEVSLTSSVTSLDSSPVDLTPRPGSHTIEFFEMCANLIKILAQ
Chain of β2 subunit-containing AMPK (P54619 whole entry partner): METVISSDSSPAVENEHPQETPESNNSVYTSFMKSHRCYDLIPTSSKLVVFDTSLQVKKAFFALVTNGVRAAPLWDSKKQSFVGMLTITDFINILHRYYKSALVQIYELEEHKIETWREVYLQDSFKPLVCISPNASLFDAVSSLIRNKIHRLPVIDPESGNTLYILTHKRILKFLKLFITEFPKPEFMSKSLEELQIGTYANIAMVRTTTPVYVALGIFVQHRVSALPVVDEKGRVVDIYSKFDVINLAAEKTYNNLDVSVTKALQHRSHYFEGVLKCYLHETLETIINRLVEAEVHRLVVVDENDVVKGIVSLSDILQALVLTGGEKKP

Chain of JNK 2 (P45984 whole entry, species assumed): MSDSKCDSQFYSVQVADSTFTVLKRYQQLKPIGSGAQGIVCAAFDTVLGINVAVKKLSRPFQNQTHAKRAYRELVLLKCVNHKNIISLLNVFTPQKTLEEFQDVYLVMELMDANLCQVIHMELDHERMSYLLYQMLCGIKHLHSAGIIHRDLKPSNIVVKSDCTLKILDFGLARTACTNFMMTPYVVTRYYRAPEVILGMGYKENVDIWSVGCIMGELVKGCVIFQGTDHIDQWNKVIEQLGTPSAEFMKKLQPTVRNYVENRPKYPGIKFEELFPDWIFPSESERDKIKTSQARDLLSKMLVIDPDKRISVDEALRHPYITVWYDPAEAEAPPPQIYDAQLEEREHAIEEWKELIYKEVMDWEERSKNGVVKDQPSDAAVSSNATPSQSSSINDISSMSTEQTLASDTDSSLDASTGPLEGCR
Chain of JNK 1 (P45983 whole entry, species assumed): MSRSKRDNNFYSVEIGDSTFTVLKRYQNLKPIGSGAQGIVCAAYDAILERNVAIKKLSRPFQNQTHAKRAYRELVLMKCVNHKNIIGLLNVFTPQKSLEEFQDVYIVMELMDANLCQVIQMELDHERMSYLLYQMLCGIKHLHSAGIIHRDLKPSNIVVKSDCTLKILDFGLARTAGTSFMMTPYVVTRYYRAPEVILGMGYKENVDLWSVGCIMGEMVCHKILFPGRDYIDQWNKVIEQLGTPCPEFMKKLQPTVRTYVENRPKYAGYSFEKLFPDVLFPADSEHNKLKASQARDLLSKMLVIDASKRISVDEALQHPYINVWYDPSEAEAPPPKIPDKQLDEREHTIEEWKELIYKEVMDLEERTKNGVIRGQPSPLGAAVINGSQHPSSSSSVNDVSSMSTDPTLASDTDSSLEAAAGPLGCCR
Chain of β1 subunit-containing AMPK (Q9Y478 whole entry): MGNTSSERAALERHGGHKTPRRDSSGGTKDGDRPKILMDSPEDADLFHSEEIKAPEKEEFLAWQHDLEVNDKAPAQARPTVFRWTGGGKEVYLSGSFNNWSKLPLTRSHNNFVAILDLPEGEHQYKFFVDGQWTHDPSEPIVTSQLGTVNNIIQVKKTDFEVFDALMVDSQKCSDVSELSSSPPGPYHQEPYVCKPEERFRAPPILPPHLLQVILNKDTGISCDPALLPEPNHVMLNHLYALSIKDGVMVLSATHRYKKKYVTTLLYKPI
Chain of β1 subunit-containing AMPK (Q13131 whole entry): as the sequence (Q13131 whole entry) above
Chain of β1 subunit-containing AMPK (P54619 whole entry partner): as the sequence (P54619 whole entry partner) above

Molecule: O=C(NOCC(O)CO)c1ccc(F)c(F)c1Nc1ccc(I)cc1F (racemic) [Compound 33]
Sol (pH 6.5) [1]: 147 μg/mL

Molecule: CC(C)(C)C1=NN(c2ccc(Br)cc2)C(c2ccc(O)cc2)C1 (stereo not shown) [1c]
cell-free assay, % inhibition at 62.5 μM (Recombinant PKCζ): 93.2% | IC50 (Recombinant PKCζ; read-out: cell-free assay, IC50 ± SD): 11.4 ± 1.25 µM

Molecule: CC(C)(C)C1=NN(c2ccc(C(F)(F)F)cc2)C(c2ccc(O)cc2)C1 (stereo not shown) [1d]
cell-free assay, % inhibition at 62.5 μM (Recombinant PKCζ): 94.2%

Molecule: CC(C)c1ccc(N2N=C(C(C)(C)C)CC2c2ccc(O)cc2)cc1 (stereo not shown) [1f]
cell-free assay, % inhibition at 62.5 μM (Recombinant PKCζ): 54.9%

Molecule: CC(C)(C)C1=NN(c2ccc(C(=O)O)cc2)C(c2ccc(O)cc2)C1 (stereo not shown) [1g]
cell-free assay, % inhibition at 62.5 μM (Recombinant PKCζ): 47.9%

Molecule: CC(C)(C)C1=NN(c2cccc(F)c2)C(c2ccc(O)cc2)C1 (stereo not shown) [1i]
cell-free assay, % inhibition at 62.5 μM (Recombinant PKCζ): 98.1%

Molecule: CC(C)(C)C1=NN(c2ccccc2Cl)C(c2ccc(O)cc2)C1 (stereo not shown) [1l]
cell-free assay, % inhibition at 62.5 μM (Recombinant PKCζ): 57.1%

Molecule: CC(C)(C)C1=NN(c2ccccc2F)C(c2ccc(O)cc2)C1 (stereo not shown) [1m]
cell-free assay, % inhibition at 62.5 μM (Recombinant PKCζ): 57.6%

Molecule: CC(C)(C)C1=NN(c2ccc(Cl)cc2Cl)C(c2ccc(O)cc2)C1 (stereo not shown) [1n]
cell-free assay, % inhibition at 62.5 μM (Recombinant PKCζ): 71.0%

Molecule: CC(C)(C)C1=NN(c2ccc(F)cc2F)C(c2ccc(O)cc2)C1 (stereo not shown) [1o]
cell-free assay, % inhibition at 62.5 μM (Recombinant PKCζ): 68.0%

Molecule: Cc1ccc(N2N=C(C(C)(C)C)CC2c2ccc(O)cc2)c(C)c1 (stereo not shown) [1p]
cell-free assay, % inhibition at 62.5 μM (Recombinant PKCζ): 59.9%

Molecule: O=C(O)/C=C(/CCc1cccc(Cl)c1)c1ccccc1 [3Z]
AC50 (PDK1 [2]; read-out: AC50): 9.5 µM

Molecule: O=C(O)/C=C(\CCc1ccc(F)cc1)c1ccccc1 [4E]
AC50 (PDK1 [2]): n.e.

Molecule: O=C(O)/C=C(/CCc1ccc(Br)cc1)c1ccccc1 [5Z]
TΔS (PDK1 [3]): 3.20 kcal/mol | ΔG (PDK1 [3]): -6.32 kcal/mol | ΔH (PDK1 [3]): -3.07 kcal/mol | ΔH/ΔG (PDK1 [3]): 46.6% | AC50 (PDK1 [2]; read-out: AC50): 9.8 µM

Molecule: O=C(Nc1nnc(SCc2ccc([N+](=O)[O-])cc2)s1)c1ccccc1Cl [6E]
AC50 (PDK1 [2]): n.e.

Molecule: O=C(O)/C=C(/CCc1ccc(C(F)(F)F)cc1)c1ccccc1 [6Z]
TΔS (PDK1 [3]): 4.79 kcal/mol | ΔG (PDK1 [3]): -6.73 kcal/mol | ΔH (PDK1 [3]): -1.84 kcal/mol | ΔH/ΔG (PDK1 [3]): 26.5% | AC50 (PDK1 [2]; read-out: AC50): 7.1 µM

Molecule: Cc1ccc(CC/C(=C\C(=O)O)c2ccccc2)c(Cl)c1 [8E]
AC50 (PDK1 [2]): n.e.

Molecule: CCc1ccc(CC/C(=C\C(=O)O)c2ccccc2)cc1 [10E]
AC50 (PDK1 [2]): n.e.

Molecule: CCc1ccc(CC/C(=C/C(=O)O)c2ccccc2)cc1 [10Z]
AC50 (PDK1 [2]; read-out: AC50): > 50 µM

Molecule: O=C(O)/C=C(/CCc1ccc2ccccc2c1)c1ccccc1 [12Z]
TΔS (PDK1 [3]): 1.96 kcal/mol | ΔG (PDK1 [3]): -6.67 kcal/mol | ΔH (PDK1 [3]): -4.56 kcal/mol | ΔH/ΔG (PDK1 [3]): 68.3% | AC50 (PDK1 [2]; read-out: AC50): 6 µM

Molecule: O=C(O)/C=C(/CCc1c[nH]c2ccccc12)c1ccccc1 [13Z]
TΔS (PDK1 [3]): 2.60 kcal/mol | ΔG (PDK1 [3]): -6.73 kcal/mol | ΔH (PDK1 [3]): -4.09 kcal/mol | ΔH/ΔG (PDK1 [3]): 60.8% | AC50 (PDK1 [2]; read-out: AC50): 7.6 µM

Molecule: N#Cc1c(O)c2c(-c3ccc(-c4ccccc4O)cc3)csc2[nH]c1=O [A769662]
pEC50 (AMPK): 6.0

Molecule: O=C(NOCC(O)CO)c1ccc(F)c(F)c1Nc1ccc(I)cc1F (stereo not shown) [Compound 35]
Sol (pH 6.5) [1]: 255, μg/mL

EC50 (K562 cells; unit inferred): ≥ 10 µM | EC50 (K562 cells; unit inferred, listed as Cpdl): > 10 µM
Molecule: O=C1NC(=O)C(c2cn(-c3ccccc3)nc2-c2ccc(F)cc2)N1 (stereo not shown) [Cpd1]

Molecule: CCCN(Cc1ccc(-c2ccccc2-c2nn[nH]n2)cc1)c1nc2ccccc2s1 [Cpd2]
EC50 (K562 cells): ~1 µM

Molecule: CCCCN(Cc1ccc(-c2ccccc2-c2nn[nH]n2)cc1)c1nc(C)cc(C)n1 [Cpd3]
EC50 (K562 cells): ~0.31 µM

Molecule: C=CC(=O)N1CCC[C@@H](n2nc(-c3ccc(Oc4ccccc4)cc3)c3c(N)ncnc32)C1 [Ibrutinib]
effect on Z-138 cell viability (Z-138 cells [4]): did not have any significant effect | effect on Z-138 cell viability (Z-138 cells [5]): did not have any significant effect

Molecule: O=C(NOC[C@H](O)CO)c1ccc(F)c(F)c1Nc1ccc(I)cc1F [Mirdametinib]
Sol (pH 6.5) [1]: 190 μg/mL

Molecule: CC[C@H](C(=O)N1CCCC[C@H]1C(=O)O[C@@H](CCc1ccc(OC)c(OC)c1)c1cccc(OCC(=O)NCCOCCOCCOCCOCCC(=O)NC2=NN(c3ccc(Cl)c(Cl)c3)CC2)c1)c1cc(OC)c(OC)c(OC)c1 [VS1043]
phosphorylation of HER2-Cter-FKBP construct (HER2-Cter-FKBP construct): significant phosphorylation | phosphorylation of HER2-Cter-FKBP construct (HER2-Cter-FKBP): significant phosphorylation | FGFR phosphorylation / FGFR1/mTOR/G-CSF signaling (FGFR): activates FGFR1/mTOR/G-CSF signaling in a dose dependent manner

Molecule: CNCc1ccc(COc2ccc3c(c2)N(C)C(C(C)C)C(=O)NC(CO)C3)cc1 (stereo not shown) [benzolactam]
effect on Z-138 cell viability (Z-138 cells [4]): did not have any significant effect | effect on Z-138 cell viability (Z-138 cells [5]): did not have any significant effect

Molecule: CCCN(Cc1ccc(-c2ccccc2-c2nn[nH]n2)cc1)c1nc2ccccc2s1 [compound 2]
pIC50 (ABL myristoyl domain): 6.5

Molecule: CCOc1nc(C(=O)NCC2CCN(Cc3sc(-c4ccccc4)nc3C)CC2)cc(N)c1C#N [compound 6]
IC50 (JNK 2): < 0.0026 µM | IC50 (JNK 1): < 0.0018 µM

Molecule: CNc1ncc2c(n1)N(C1CCC(O)C1)C(=O)N(c1cc(NC(=O)c3ccc(CN4CCN(C)CC4)c(C(F)(F)F)c3)ccc1C)C2 (stereo not shown) [compound 9]
IC50 (JNK 2): 1.3 µM | IC50 (JNK 1): 0.97 µM

Molecule: O=C(O)c1cc(-c2cccc(F)c2)nc2ccccc12 [compound 26]
IC50 (Aurora A): 75.9 µM | Ki (Aurora A): 16.5 µM

Molecule: O=C(O)c1cc(-c2cccc(C(F)(F)F)c2)nc2ccccc12 [compound 34]
IC50 (Aurora A): 26.5 µM | Ki (Aurora A): 5.7 µM

Molecule: Alvespimycin
IC50 (HSP90): 0.062 µM

Molecule: MT47-100
pKi as an activator [6]: 5.4 | pKi as an allosteric inhibitor [7]: 4.6
